From patent US7932051B2, “Blood and urine test” (R-Biopharm AG, priority 2003, dated 2011)
Like-named read-outs stand apart in the source and are kept apart here.

Test system: microbial inhibition test (Premi®Test)
Method: Urine samples were examined using microbial inhibition test ampoules produced according to the methods described in EP 0005891 with the nutrients present in the agar. Said test is also known as Premi®Test (commercially available from DSM, Delft, The Netherlands).
Samples were examined as described in Example 1. CaCl2.2H2O was dissolved in water or chicken meat fluid, in concentrations of 0, 0.0078, 0.0156, 0.0312, 0.0625, 0.125, 0.25, 0.5 and 1 M. The samples were added to the test ampoules. After a pre-incubation for 20 minutes at room temperature the sample was removed and the test was incubated in a water bath at 64±1° C. following the instructions of the manufacturer. The results were obtained after 165 minutes for chicken meat fluid and 185 minutes in case of water, by reading the change of color from purple to yellow.

Q: For `[Ca+2].[Cl-].[Cl-]` [CaCl2, Calcium Chloride], which “Color observed in microbial inhibition test” value (CaCl2 0.0078 M in chicken meat fluid, read after 165 minutes) is on record?
A: Its value is “Yellow”.

Q: And the “Color observed in microbial inhibition test” value (CaCl2 0.0078 M in water, read after 185 minutes)?
A: The value was “Yellow”.

Q: What about the “Color observed in microbial inhibition test” value (CaCl2 0.0156 M in chicken meat fluid, read after 165 minutes) of the same molecule?
A: Its value is “Yellow”.

Q: And the “Color observed in microbial inhibition test” value (CaCl2 0.0156 M in water, read after 185 minutes)?
A: The value was “Yellow”.

Q: And the “Color observed in microbial inhibition test” value (CaCl2 0.0312 M in chicken meat fluid, read after 165 minutes)?
A: Its value is “Yellow”.

Q: What about the “Color observed in microbial inhibition test” value (CaCl2 0.0312 M in water, read after 185 minutes) of the same molecule?
A: Its value is “Yellow”.

Q: What about the “Color observed in microbial inhibition test” value (CaCl2 0.0625 M in chicken meat fluid, read after 165 minutes) of the same molecule?
A: The value was “Yellow”.

Q: And the “Color observed in microbial inhibition test” value (CaCl2 0.0625 M in water, read after 185 minutes)?
A: Its value is “Yellow”.

Q: And the “Color observed in microbial inhibition test” value (CaCl2 0.125 M in chicken meat fluid, read after 165 minutes)?
A: The value was “Yellow”.

Q: And the “Color observed in microbial inhibition test” value (CaCl2 0.125 M in water, read after 185 minutes)?
A: Its value is “Yellow”.

Q: What about the “Color observed in microbial inhibition test” value (CaCl2 0.25 M in chicken meat fluid, read after 165 minutes) of the same molecule?
A: Its value is “Yellow”.

Q: What about the “Color observed in microbial inhibition test” value (CaCl2 0.25 M in water, read after 185 minutes) of the same molecule?
A: Its value is “Yellow”.

Q: And the “Color observed in microbial inhibition test” value (CaCl2 0.5 M in chicken meat fluid, read after 165 minutes)?
A: Its value is “Yellow”.

Q: And the “Color observed in microbial inhibition test” value (CaCl2 0.5 M in water, read after 185 minutes)?
A: Its value is “Purple”.

Q: And the “Color observed in microbial inhibition test” value (CaCl2 1 M in chicken meat fluid, read after 165 minutes)?
A: The value was “Yellow”.

Q: What about the “Color observed in microbial inhibition test” value (CaCl2 1 M in water, read after 185 minutes) of the same molecule?
A: The value was “Purple”.

Q: And the “Concentration of CaCl2 with no inhibition” value (in chicken meat fluid)?
A: Its value is “up to 1 M”.

Q: What about the “Concentration of CaCl2 that does not influence the test results” value (in water) of the same molecule?
A: The value was “up to 0.25 M”.
